We go through 1 compound from patent US11607414B2, “Small molecule inhibitors of EGFR and PI3K” (The Regents of the University of Michigan, priority 2014, dated 2023).

The target in one data set is PIK3CA (Homo sapiens, UniProt P42336). The data set is described as follows: ADAPTA universal kinase assay, PIK3CA. The data set is classed as biochemical. Here is the method:
Various compounds were tested for their ability to inhibit EGFR and PIK3CA. The assays determining inhibitions are given in Example 2 Assays-Z′-LYTE® and ADAPTA.
Enzyme: The ADAPTA universal kinase assay is a homogenous, fluorescent based immunoassay for the detection of ADP. In contrast to ATP depletion assays, the ADAPTA assay is extremely sensitive to ADP formation such that a majority of the signal change occurs in the first 10-20% conversion of ATP to ADP. This makes the ADAPTA universal kinase assay ideally suited for use with low activity kinases.
The principle of the ADAPTA universal kinase assay is outlined below. The assay itself can be divided into two phases: a kinase reaction phase, and an ADP detection phase. […]
ADP formation is determined by calculating the emission ratio from the assay well. The emission ratio is calculated by dividing the intensity of the tracer (acceptor) emission by the intensity of the Eu (donor) emission at 615 nm as shown in the equation below.
Adapta® Assay Conditions' • Test Compounds: The Test Compounds are screened in 1% DMSO (final) in the well. […] ATP Km apparent is previously determined using a radiometric assay except when no substrate is available in which case an Adapta® assay is conducted. • Detection Mix: The Detection Mix is prepared in TR-FRET Dilution Buffer. […] Read on fluorescence plate reader and analyze the data.

Data set [1] concerns KRAS mutant HCT-116 cells. In words: HCT-116 cell viability / proliferation (Cell Titer Glo). The format is cell-based. Here is the method: Cell proliferation was determined using the Cell Titer Glo assay (Promega, Madison, Wis.). Cell lines were seeded at a density between 2,000 and 5,000 cells per well in a 96-well plate. Twenty four hours after plating, cells were dosed with varying concentrations of drug, either as a single agent or in combination. The signal for Cell Titer Glo was determined 72 or 96 hours after dosing.
(ATP-based viability assays read luminescence as a measure of living cells.)

Data set [2] concerns phosphorylation of EGFR in HCT-116 tumors. In words: In vivo pharmacodynamics in subcutaneous HCT-116 tumors, pEGFR. The following applies: single oral dose 100 mg/kg, two hours post-dosing. An excerpt:
However, additional synthesis of MOL-162 is needed to allow a full pharmacodynamic time course study to be carried out to determine the maximal degree of target inhibition of both targets after single and repeated daily dosing.

PIK3CA, sequence (P42336 whole entry): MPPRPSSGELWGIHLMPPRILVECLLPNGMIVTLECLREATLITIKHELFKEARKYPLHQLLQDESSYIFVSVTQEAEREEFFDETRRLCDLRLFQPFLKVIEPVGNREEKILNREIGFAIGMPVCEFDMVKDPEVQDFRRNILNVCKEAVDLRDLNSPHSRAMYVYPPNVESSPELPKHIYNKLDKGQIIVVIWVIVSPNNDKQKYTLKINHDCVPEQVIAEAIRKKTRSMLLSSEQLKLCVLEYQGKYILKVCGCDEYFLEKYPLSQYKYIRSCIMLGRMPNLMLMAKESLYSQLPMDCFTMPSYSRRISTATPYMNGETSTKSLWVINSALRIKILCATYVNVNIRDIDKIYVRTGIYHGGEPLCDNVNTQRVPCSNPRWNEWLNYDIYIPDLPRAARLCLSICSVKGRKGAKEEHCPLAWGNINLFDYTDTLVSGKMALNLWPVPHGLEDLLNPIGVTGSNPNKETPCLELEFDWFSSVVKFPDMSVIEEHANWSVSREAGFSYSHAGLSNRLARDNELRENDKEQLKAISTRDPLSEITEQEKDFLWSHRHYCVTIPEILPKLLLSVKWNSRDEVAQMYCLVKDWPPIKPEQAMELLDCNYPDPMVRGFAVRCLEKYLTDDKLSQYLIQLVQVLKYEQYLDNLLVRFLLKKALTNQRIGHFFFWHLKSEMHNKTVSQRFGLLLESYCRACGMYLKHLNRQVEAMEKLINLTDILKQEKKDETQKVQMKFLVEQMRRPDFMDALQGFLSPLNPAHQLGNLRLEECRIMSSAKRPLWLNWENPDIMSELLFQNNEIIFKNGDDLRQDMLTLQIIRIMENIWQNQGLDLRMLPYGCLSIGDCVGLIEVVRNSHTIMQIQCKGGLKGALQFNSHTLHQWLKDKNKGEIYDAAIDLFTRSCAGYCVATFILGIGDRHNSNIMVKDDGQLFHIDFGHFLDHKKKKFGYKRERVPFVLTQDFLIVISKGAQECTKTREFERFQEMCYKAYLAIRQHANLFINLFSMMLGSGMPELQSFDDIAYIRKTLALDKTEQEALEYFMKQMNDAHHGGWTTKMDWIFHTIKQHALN
PIK3CA, sequence (P27986 whole entry partner): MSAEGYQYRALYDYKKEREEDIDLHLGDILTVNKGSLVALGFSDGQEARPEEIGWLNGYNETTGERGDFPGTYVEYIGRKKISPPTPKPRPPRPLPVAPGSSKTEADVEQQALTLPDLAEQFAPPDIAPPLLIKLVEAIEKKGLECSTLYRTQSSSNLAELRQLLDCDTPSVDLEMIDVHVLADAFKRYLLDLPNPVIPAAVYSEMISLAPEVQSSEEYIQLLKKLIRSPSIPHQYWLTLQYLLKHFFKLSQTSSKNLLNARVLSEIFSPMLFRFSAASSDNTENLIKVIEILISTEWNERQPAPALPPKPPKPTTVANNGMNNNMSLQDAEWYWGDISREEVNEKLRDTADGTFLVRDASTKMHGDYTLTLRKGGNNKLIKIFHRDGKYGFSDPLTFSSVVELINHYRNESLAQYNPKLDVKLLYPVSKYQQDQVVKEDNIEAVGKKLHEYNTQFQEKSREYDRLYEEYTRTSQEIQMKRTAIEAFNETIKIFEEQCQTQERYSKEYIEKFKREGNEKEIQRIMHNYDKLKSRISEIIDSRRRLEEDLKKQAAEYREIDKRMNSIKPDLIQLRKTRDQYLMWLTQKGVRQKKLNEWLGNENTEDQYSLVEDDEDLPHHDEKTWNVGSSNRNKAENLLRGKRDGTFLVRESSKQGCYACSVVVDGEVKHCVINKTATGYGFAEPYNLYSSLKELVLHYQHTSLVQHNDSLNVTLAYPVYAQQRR

As for `CS(=O)(=O)Nc1cncc(-c2ccc3ncnc(Nc4cccc(Cl)c4)c3c2)c1` [MOL-162, N-(5-(4-((3-chlorophenyl)amino)quinazolin-6-yl)pyridin-3-yl)methanesulfonamide], the “inhibition of / potency against purified PIK3CA (in words)” value at PIK3CA was “potent dual inhibition”. In data set [1], the cytotoxicity entry is on record as “cytotoxicity”. For the same compound, the “phosphorylation of EGFR in tumors” value in data set [2] is recorded as “completely suppressed”.
